The values that follow come from US10966996B2, “Glechoma longitube extract, preparation method for same, and use thereof in sugar reduction, weight loss, and lipid reduction” (SHANGHAI INSTITUTE OF MATERIA MEDICA CHINESE ACADEMY OF …, priority 2014, dated 2021).

Structures are written as SMILES.

One assay concerns C57BL/KsJ mice. Put plainly: acute oral glucose tolerance test (OGTT) and blood insulin in mice. Format: in vivo. The settings on record: for acute oral glucose tolerance in mice: both 100 mg/kg and 200 mg/kg; for acute oral glucose tolerance in mice, compared with Sitagliptin (10 mg/kg): higher dose (200 mg/kg). On the procedure:
Oral glucose tolerance test (OGTT) method: 8-week old male C57BL/KsJ mice (Shanghai Slac Laboratory Animal Company), 8 for each group, weight of 20±2 g, were fed according to SPF grade operation procedure and fasted for 16 hours prior to experiment. Blood was collected from tail vein of each group of mice prior to experiment. Blood glucose concentrations were measured using Roche ACCU-CHEK glucometer and recorded as time 0. Different concentrations of the compound were intragastric administrated to each administration group of mice, respectively. Equal volume of distilled water was given to control group of mice. The dosage volume was 10 ml/kg. Half an hour after administration, 5 g/kg glucose was intragastric administrated to each group of mice. Blood glucose concentrations of each group of mice were measured and recorded at 20 mins, 40 mins, and 80 mins after the intragastric administration. OGTT curves were recorded. Areas under the curves (AUC) were calibrated with the data in blood glucose of mice to which glucose was not given (calibration group). ONE-WAY-ANOVA was used to compare significant difference between each group (Note: all the experimental methods for acute oral glucose tolerance test in the following activity examples are the same to the experimental method in Example 5, unless otherwise indicated). Blood was collected from tail vein at 20 mins after oral administration of glucose for mice. ELISA (kit was bought from Millipore, USA) was utilized for measuring blood insulin level of mice.

The target of the next assay is T1, hDGAT1 (Homo sapiens, UniProt O75907).
T1 construct: made in house; host or cells: insect cells
T1 sequence (O75907 1-488): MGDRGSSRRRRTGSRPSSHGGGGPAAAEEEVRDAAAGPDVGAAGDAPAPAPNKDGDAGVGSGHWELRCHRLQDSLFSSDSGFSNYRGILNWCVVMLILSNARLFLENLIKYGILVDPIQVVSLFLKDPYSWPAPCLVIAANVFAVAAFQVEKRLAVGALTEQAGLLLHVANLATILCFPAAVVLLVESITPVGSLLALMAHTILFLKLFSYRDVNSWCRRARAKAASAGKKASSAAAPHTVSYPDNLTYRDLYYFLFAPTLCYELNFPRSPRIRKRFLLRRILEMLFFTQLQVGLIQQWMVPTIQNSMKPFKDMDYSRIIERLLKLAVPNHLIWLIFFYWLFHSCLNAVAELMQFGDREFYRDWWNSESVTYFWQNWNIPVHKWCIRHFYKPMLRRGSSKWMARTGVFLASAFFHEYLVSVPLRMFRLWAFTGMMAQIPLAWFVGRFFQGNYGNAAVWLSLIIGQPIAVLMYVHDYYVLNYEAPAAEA
The experiment in a line: inhibitory activity against hDGAT1 (CPM fluorescence). The settings on record: for inhibition at 10 µM: read-out: Inhibition rate (%) (10 μM) against hDGAT1; for inhibition at 50 µM: read-out: Inhibition rate (%) (50 μM) against hDGAT1. Format: biochemical. On the procedure:
Experimental method: (1) the effect of the extract of Glechoma longituba (Nakai) Kupr., LQC-H-1, on serum triglyceride level was evaluated in acute hypertriglyceridemic mouse model; 6-week old male C57BL/KsJ mice (Shanghai Slac Laboratory Animal Company), 8 for each group, weight of 20±2 g, were fed according to SPF grade operation procedure and fasted overnight for 16 hours prior to experiment. Compounds of different concentrations were intragastric administrated to each administration group of mice, respectively. Equal volume of water was given to control group and blank group of mice. 30 mins later, 2 g/kg olive oil was intragastric administrated to administration group and control group of mice, while equal volume of water was given to blank group of mice. 2 hours later, blood was collected from orbital vein of each group of mice for the separation of serum, and concentration of triglyceride in the serum was measured; (2) inhibitory activity of the individual compounds separated from the extract of Glechoma longituba (Nakai) Kupr., LQC-H-1, against diacylglycerol acyltransferase (DGAT): human derived DGAT1 obtained by expression and purification with insect cells were pre-incubated together with the compounds, substrate diacylglycerol was added to initiate the reaction in the presence of coenzyme A, fluorescence signal generated by the combination of produced sulfydryl and CPM was measured, and the inhibitory activity of the compound against DGAT was calculated according to the following formula: Inhibition rate %=(OD blank−OD compound)/(OD blank−OD negative control)*100%
OD compound, OD blank, and OD negative control represented the fluorescence values from a compound well, a blank well, and a negative control well free of DGAT1 enzyme, and the concentrations of the compounds when the enzyme activity inhibition rate (%) reached 50% were set as IC50 value; (3) inhibitory activity of the individual compounds separated from the extract of Glechoma longituba (Nakai) Kupr., LQC-H-1, against pancrelipase: substrate p-Nitrophenyl acetate (Sigma, USA) was formulated to 1.35 mM with phosphate buffer (25 mM, pH 6.8); porcine pancrelipase (Sigma) was formulated to 10 mg/ml with phosphate buffer; brominated eneyne compounds were formulated to solutions of different concentrations with phosphate buffer. Then, 50 μl of 1.35 mM p-Nitrophenyl acetate (Sigma, USA) solution and 10 μl of test compounds of different concentrations were sequentially added into a 96-well plate and pre-incubated at 37° C. for 5 mins. Finally, 50 μl of 10 mg/ml pancrelipase (EC 3.1.1.3, Sigma, USA) was added and mixed. The reaction proceeded at 37° C. for further 20 mins Absorbance of each well was measured at 492 nm. The inhibition rates (%) of the test samples against pancrelipase were calculated based on the absorbance at 492 nm. The concentrations of the compounds when then enzyme activity inhibition rate (%) reached 50% was set as IC50 value. The inhibition rate (%) could be calculated according to the following formula: Inhibition rate (%)=[(A−B)−(C−D)]/(A−B)×100

As a reminder, the inhibition is the relative decrease from the control value, in per cent. Take `O=C(O)C1O[C@@H](OC2C(O)[C@H](O)C(C(=O)O)O[C@H]2Oc2cc(O)c3c(=O)cc(-c4ccc(O)c(O)c4)oc3c2)C(O)C(O)[C@@H]1O` (stereo partly drawn) [Compound I, luteolin-7-O-[β-glucuronosyl(1→2)β-glucuronic acid]]: in the assay on C57BL/KsJ mice, the “acute oral glucose tolerance in mice” value is “significantly enhance acute oral glucose tolerance” and the “acute oral glucose tolerance in mice, compared with Sitagliptin (10 mg/kg)” value is reported as “activity comparable to the commercial chemical drug, Sitagliptin”. Further, on hDGAT1, the inhibition at 10 µM is ~20% and the inhibition at 50 µM is > 50%.
As to `O=C(O)C1O[C@@H](OC2C(O)[C@H](O)C(C(=O)O)O[C@H]2Oc2cc(O)c3c(=O)cc(-c4ccc(O)cc4)oc3c2)C(O)C(O)[C@@H]1O` (stereo partly drawn) [Compound II, apigenin-7-O-[β-glucuronosyl(1→2)β-glucuronic acid]], in the assay on C57BL/KsJ mice, the “acute oral glucose tolerance in mice” value was “significantly enhance acute oral glucose tolerance” and the “acute oral glucose tolerance in mice, compared with Sitagliptin (10 mg/kg)” value was “activity comparable to the commercial chemical drug, Sitagliptin”. Also, at hDGAT1, the inhibition at 10 µM is ~20% and the inhibition at 50 µM is > 50%.
